Assay results reported in PMC5992111, “Heterocyclization of polarized system: synthesis, antioxidant and anti-inflammatory 4-(pyridin-3-yl)-6-(thiophen-2-yl) pyrimidine-2-thiol derivatives” (Chemistry Central Journal, 2018).
Marks after values point to notes of the source that are not given here.

How the values were obtained:
[1] = DPPH free radical scavenging assay; settings: for scavenging activity towards the DPPH radicals (in words): compared with ascorbic acid
Protocol: • DPPH free radical scavenging assay was determined (4). Ascorbic acid was used as reference standard antioxidant.

lipid peroxidation = assay: Lipid peroxidation assay
Protocol: • Lipid peroxidation assay (5 and 6) was calculated as IC50 and recorded in Table 3.

ovine COX-2 = biological target: T1, ovine COX-2 (Ovis aries, UniProt P79208); assay: In vitro COX-2 inhibition, colorimetric ovine COX-1/COX-2 inhibitor screening assay kit; assay type: biochemical; settings: for COX-1/COX-2 selectivity index: IC50 (COX-1)/IC50 (COX-2); for IC50: means of three determinations, read at 590 nm, read-out: IC 50 (µM) COX-2; for inhibitory activity against COX-2 (in words): compared with the standard drug celecoxib
T1 construct: purchased
T1 sequence (P79208 17-603): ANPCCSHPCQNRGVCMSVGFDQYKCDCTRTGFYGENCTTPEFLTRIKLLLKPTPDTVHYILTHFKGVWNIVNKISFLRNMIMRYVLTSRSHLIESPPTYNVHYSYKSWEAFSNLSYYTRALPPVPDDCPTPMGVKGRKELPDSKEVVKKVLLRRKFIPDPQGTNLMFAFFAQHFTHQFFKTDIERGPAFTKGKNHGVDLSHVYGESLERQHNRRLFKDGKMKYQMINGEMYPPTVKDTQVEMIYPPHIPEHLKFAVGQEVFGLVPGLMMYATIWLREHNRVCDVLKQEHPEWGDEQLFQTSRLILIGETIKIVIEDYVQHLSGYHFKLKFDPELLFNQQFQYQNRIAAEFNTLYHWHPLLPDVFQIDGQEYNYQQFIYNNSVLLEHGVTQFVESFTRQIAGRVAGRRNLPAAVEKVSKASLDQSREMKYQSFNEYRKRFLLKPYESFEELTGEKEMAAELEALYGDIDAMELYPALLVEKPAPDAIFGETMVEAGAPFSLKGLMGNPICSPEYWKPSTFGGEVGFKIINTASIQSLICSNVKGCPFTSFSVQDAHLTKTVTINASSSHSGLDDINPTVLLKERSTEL

ovine COX-1 = biological target: T2, ovine COX-1 (Ovis aries, UniProt P05979); assay: In vitro COX-1 inhibition, colorimetric ovine COX-1/COX-2 inhibitor screening assay kit; assay type: biochemical; settings: for IC50: means of three determinations, read at 590 nm, read-out: IC 50 (µM) COX-1; for inhibitory activity against COX-1 (in words): compared with the standard drug celecoxib
T2 construct: purchased
T2 sequence (P05979 25-600): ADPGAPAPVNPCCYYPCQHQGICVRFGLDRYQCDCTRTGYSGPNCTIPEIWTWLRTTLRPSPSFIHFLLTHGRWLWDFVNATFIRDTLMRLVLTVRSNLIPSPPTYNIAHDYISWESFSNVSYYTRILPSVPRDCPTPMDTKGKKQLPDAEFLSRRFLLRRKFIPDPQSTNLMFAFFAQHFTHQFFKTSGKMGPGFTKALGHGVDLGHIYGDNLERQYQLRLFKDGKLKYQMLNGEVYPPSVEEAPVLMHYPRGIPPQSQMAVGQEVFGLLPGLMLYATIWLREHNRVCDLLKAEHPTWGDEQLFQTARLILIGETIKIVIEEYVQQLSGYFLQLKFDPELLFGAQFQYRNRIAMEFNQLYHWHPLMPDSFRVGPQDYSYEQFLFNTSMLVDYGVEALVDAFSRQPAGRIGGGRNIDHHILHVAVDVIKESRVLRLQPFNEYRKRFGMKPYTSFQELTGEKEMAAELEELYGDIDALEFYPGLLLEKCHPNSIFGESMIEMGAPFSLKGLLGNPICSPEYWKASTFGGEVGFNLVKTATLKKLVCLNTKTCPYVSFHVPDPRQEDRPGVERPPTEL

[2] = system: carrageenan induced rat paw edema; assay: Carrageenan induced rat paw edema; assay type: in vivo; settings: mean ± SD
Protocol: Carrageenan induced rat paw edema in rats: Fifty rats were divided into ten groups (i.e., each group, five rats). The first group (control), received carboxymethyl cellulose. The second group was given diclofenac sodium as a standard anti-inflammatory drug. Groups (3–10) were orally given the newly synthesized compounds (3–6) in two dosages (5 and 10 mg/kg). Results were expressed as rat paw edema percent. One hour later after administration of tested doses, carrageenan was injected sub planter in the left hind footpad of each rat as 0.05 ml of 1% solution in sterile distilled water. Plethysmometer was used to measure paw edema volume from 0 to 4 h after carrageenan injection. Paw edema volume was compared with vehicle control group and reduction percent was calculated as the following %reduction in edema=1-Vt Vc×100 Where Vt and Vc are the edema volume in the group treated with drug and control, respectively. Results were expressed as mean ± standard deviation (SD). Differences between means were tested for significance using a one-way analysis of variance (ANOVA) followed by Duncan’s test (Table 2).

[3] = 5 mg/kg.b.wt oral, 0 h after carrageenan
[4] = 5 mg/kg.b.wt oral, 1 h after carrageenan
[5] = 5 mg/kg.b.wt oral, 2 h after carrageenan
[6] = 5 mg/kg.b.wt oral, 3 h after carrageenan
[7] = 5 mg/kg.b.wt oral, 4 h after carrageenan
[8] = 10 mg/kg.b.wt oral, 0 h after carrageenan
[9] = 10 mg/kg.b.wt oral, 1 h after carrageenan
[10] = 10 mg/kg.b.wt oral, 2 h after carrageenan
[11] = 10 mg/kg.b.wt oral, 3 h after carrageenan
[12] = 10 mg/kg.b.wt oral, 4 h after carrageenan

| SMILES | IC50 (μg/ml) for DPPH Scavenging [1] [µg/mL] | IC50 (μg/ml) for anti-lipid peroxidation (lipid peroxidation) [µg/mL] | COX-1/COX-2 selectivity index (ovine COX-2) | IC50 (ovine COX-2) [µM] | IC50 (ovine COX-1) [µM] | melting point [°C] | Inhibition percent of rat paw edema [2, 3] | Inhibition percent of rat paw edema [2, 4] | Inhibition percent of rat paw edema [2, 5] | Inhibition percent of rat paw edema [2, 6] | Inhibition percent of rat paw edema [2, 7] | Inhibition percent of rat paw edema [2, 8] | Inhibition percent of rat paw edema [2, 9] | Inhibition percent of rat paw edema [2, 10] | Inhibition percent of rat paw edema [2, 11] | Inhibition percent of rat paw edema [2, 12] | further results |
| --- | --- | --- | --- | --- | --- | --- | --- | --- | --- | --- | --- | --- | --- | --- | --- | --- | --- |
| O=C1O[C@H]([C@@H](O)CO)C(O)=C1O [Ascorbic acid, reference compound] | 13.71 ± 0.75 | 25.72 ± 1.23 | – | – | – | – | – | – | – | – | – | – | – | – | – | – | – |
| O=C(/C=C/c1cccs1)c1cccnc1 [Compound 3, (E)-1-(pyridin-3-yl)-3-(thiophen-2-yl) prop-2-en-1-one] | 10.72 ± 0.54 | 16.81 ± 2.71 | 9.49 | 0.39 | 3.7 | 256 to 258 | 0.48 ± 0.027^ab % | 21.72 ± 0.79^b % | 22.79 ± 1.07^d % | 24.79 ± 0.49^c % | 28.41 ± 1.30^c % | 0.47 ± 0.04^ab % | 31.98 ± 9.35^a % | 29.93 ± 1.43^b % | 34.16 ± 0.61^b % | 41.15 ± 0.750^a % | scavenging activity towards the DPPH radicals (in words) [1]: higher scavenging activity towards the DPPH radicals than that of ascorbic acid |
| S=c1nc(-c2cccnc2)cc(-c2cccs2)[nH]1 [Compound 4, 4-(pyridin-3-yl)-6-(thiophen-2-yl) pyrimidine-2(1H)-thione] | 12.64 ± 0.41 | 22.53 ± 3.25 | 9.13 | 0.44 | 4.02 | 220 to 225 | 0.46 ± 0.03^b % | 18.91 ± 1.19^bc % | 20.07 ± 1.43^e % | 21.96 ± 1.25^d % | 27.38 ± 1.68^c % | 0.49 ± 0.01^ab % | 21.43 ± 0.96^b % | 26.27 ± 49^e % | 33.13 ± 2.64^b % | 37.15 ± 0.69^b % | scavenging activity towards the DPPH radicals (in words) [1]: higher scavenging activity towards the DPPH radicals than that of ascorbic acid |
| NNc1nc(-c2cccnc2)cc(-c2cccs2)n1 [Compound 5, 1-(4-(pyridin-3-yl)-6-(thiophen-2-yl)pyrimidin-2-yl)hydrazine] | 14.61 ± 0.72 | 23.62 ± 2.31 | 5.29 | 0.87 | 4.6 | 180 to 182 | 0.49 ± 0.01^a % | 11.62 ± 1.24^de % | 14.61 ± 1.81^g % | 18.41 ± 1^e % | 19.48 ± 0.89^e % | 0.48 ± 0.01^ab % | 15.41 ± 0.83^cd % | 18.83 ± 0.75^ef % | 24.19 ± 1.59^c % | 28.59 ± 2.26^c % | inhibitory activity against COX-2 (in words) (ovine COX-2): nearly like that of the standard drug; inhibitory activity against COX-1 (in words) (ovine COX-1): nearly like that of the standard drug |
| N#Cc1c(-c2cccs2)cc(-c2cccnc2)oc1=O [Compound 6, 2-oxo-6-(pyridin-3-yl)-4-(thiophen-2-yl)-2H-pyran-3-carbonitrile] | 15.26 ± 0.44 | 22.67 ± 3.51 | 5.89 | 0.84 | 4.95 | 210 to 212 | 0.50 ± 0.02^a % | 9.61 ± 1.12^e % | 12.28 ± 1.38^h % | 17.19 ± 1.26^e % | 18.51 ± 2.26^e % | 0.49 ± 0.01^a % | 13.75 ± 1.15^de % | 17.52 ± 1.13^f % | 20.43 ± 0.65^d % | 22.39 ± 1.16^d % | inhibitory activity against COX-2 (in words) (ovine COX-2): nearly like that of the standard drug; inhibitory activity against COX-1 (in words) (ovine COX-1): nearly like that of the standard drug |
| Cc1cc(=O)oc2c1c(C)nn2-c1nc(-c2cccnc2)cc(-c2cccs2)n1 [Compound 8, 3,4-dimethyl-1-(4-(pyridin-3-yl)-6-(thiophen-2-yl)pyrimidin-2-yl)pyrano[2,3-c]pyrazol-6(1H)-one] | – | – | – | – | – | 190 to 192 | – | – | – | – | – | – | – | – | – | – | – |
| CC1=NN(c2nc(-c3cccnc3)cc(-c3cccs3)n2)C(=O)C1 [Compound 9, 3-methyl-1-(4-(pyridin-3-yl)-6-(thiophen-2-yl)pyrimidin-2-yl)-1H-pyrazol-5(4H)-one] | – | – | – | – | – | 225 to 227 | – | – | – | – | – | – | – | – | – | – | – |
| O=C(O)Cc1ccccc1Nc1c(Cl)cccc1Cl [Diclofenac sodium, diclofenac sodium, reference compound] | – | – | – | – | – | – | – | – | – | – | – | – | – | – | – | – | Inhibition percent of rat paw edema ([2]; standard drug, dose not given, 0 h after carrageenan): 0.49 ± 0.032^a %; Inhibition percent of rat paw edema ([2]; standard drug, dose not given, 1 h after carrageenan): 30.22 ± 1.27^a %; Inhibition percent of rat paw edema ([2]; standard drug, dose not given, 2 h after carrageenan): 33.85 ± 1.19^a %; Inhibition percent of rat paw edema ([2]; standard drug, dose not given, 3 h after carrageenan): 36.21 ± 0.93^a %; Inhibition percent of rat paw edema ([2]; standard drug, dose not given, 4 h after carrageenan): 41.10 ± 3.98^a % |
